Paper PMC5353710, “Structural insights into the γ-lactamase activity and substrate enantioselectivity of an isochorismatase-like hydrolase from Microbacterium hydrocarbonoxydans” (Scientific Reports, 2017)

What was measured:
MhIHL (Mh33H4-5540) [1] = molecular target: T1, MhIHL (Mh33H4-5540) (Microbacterium hydrocarbonoxydans, UniProt A0A0K0XHU0, C111A); conditions: inactive variant; crystal soaked in 500 mM ligand for 10 min; active site
MhIHL (Mh33H4-5540) [2] = molecular target: T1, MhIHL (Mh33H4-5540); conditions: inactive variant; crystal soaked in 250 mM ligand for 1.5 h; active site

| SMILES | X-ray crystal structure, 1.79 Å (MhIHL (Mh33H4-5540) [1]) | X-ray crystal structure, 1.99 Å (MhIHL (Mh33H4-5540) [2]) |
| --- | --- | --- |
| O=C1N[C@@H]2C=C[C@H]1C2 [(+)-γ-lactam, 2-Azabicyclo[2.2.1]hept-5-en-3-one] | The final MhIHL–(+)-γ-lactam complex crystals were obtained by soaking the crystal |  |
| O=C1N[C@H]2C=C[C@@H]1C2 [(−)-γ-lactam, 2-Azabicyclo[2.2.1]hept-5-en-3-one] |  | The final crystals of MhIHL–(−)-γ-lactam complex were obtained by soaking the crystal |
